Data set [1] can be described thus: Single dose oral plasma pharmacokinetics. The class given is in vivo, male C57BL/6 mice. As to conditions: free astaxanthin, single 500 mg/kg oral dose. As for the experimental part: Single dose oral pharmacokinetic parameters (including Cmax, Tmax, AUC(0-72) Vd, and clearance) of the disodium disuccinate astaxanthin derivative XVI were determined in male C57BL/6 mice. The animals were administered the derivative orally at a single maximum dose (500 mg/kg) shown in prior studies to likely be efficacious in preventing the injury secondary to CCl4-administration in Sprague-Dawley rats (100 mg/kg body weight in those studies). Samples for HPLC analysis of levels of free astaxanthin in plasma and liver were obtained at the following time points, from at least 3 animals per time point: Time 0 [Immediately Before Dosing of Test Compound], 2, 4, 6, 8, 12, 16, 24, 48, and 72 Hours After Ingestion. Additional samples, with N<3, were taken at other intervals (10, 14, and 36 hours; Tables 2 and 3). Non-esterified, free astaxanthin levels were determined in this study as carotenoid esters are completely cleaved in the mammalian gut to free carotenoid, which moves passively across the enterocyte. 5 Male C57BL/6 mice, approximately 25 g, were housed in cages (three mice/cage) and fed standard mouse chow (Purina Mouse Chow, Ralston Purina, St. Louis) and water ad libitum for at least five days prior to the start of the experiment. […]

Data set [2] relates to connexin 43 protein expression. Put plainly: Induction of connexin 43 protein expression (Western blot, 96 hours). The class given is cell-based, mouse. As to conditions: 96 hours. As for the experimental part: In brief, mouse embryonic fibroblast CH3/10T^1/2 cells were treated with the following formulations in a 4 mL cell culture system with media containing 2% calf serum: • 1. TTNPB [p-(E)-2-(5,6,7,8-tetrahydro-5,5,8,8-tetramethyl-2-napthyl) propenyl benzoic acid] 10^−8 M in acetone [positive control for connexin 43 upregulation (4 μL in 4 mL] • 2. Disodium salt disuccinate astaxanthin derivative XVI/H2O at 10^−5 M (40 μl in 4 mL) • 3. Disodium salt disuccinate astaxanthin derivative XVI/H2O at 10^−6 M (4 μl in 4 mL) • 4. Disodium salt disuccinate astaxanthin derivative XVI/H2O at 10^−7 M (1:10 dilution and 4 μl in 4 mL) • 5. Disodium salt disuccinate astaxanthin derivative XVI H2O/ethanol [EtOH] formulation at 10^-5 M (40 μl in 4 mL) • 6. Disodium salt disuccinate astaxanthin derivative XVI H2O/EtOH formulation at 10^−6 M (4 μl in 4 mL) • 7. Sterile H2O control (40 μl in 4 mL) • 8. Sterile H2O/EtOH control (20 μL EtOH, 20 μL H2O in 4 mL) • 9. Media control (4 mL)
Cells were harvested after 96 hours incubation with test compounds and control solutions. All media solutions were identical in color, however after treatment with the disodium salt disuccinate astaxanthin derivative XVI at both 10^−5 dilutions, the color subjectively changed to an orange-red color. Cells treated with TTNPB appeared striated with light microscopy, evidence of differentiation to myocytes, an expected result in this cell culture system. After harvest and pelleting of cells, tubes containing both 10^−5 disodium salt disuccinate astaxanthin derivative XVI solutions were bright red; both 10^−6 dilution tubes were a pink color. As documented previously for other colored carotenoids, this was subjective evidence for cellular uptake of the test compounds.
Cells were then lysed, and 50 μg of each protein was electrophoresed on a 10% polyacrylamide gel. The gel was then transferred to a nitrocellulose filter. Total protein was assayed with Coomassie blue staining (FIG. 29; lanes 6, 7, and 9 were smeared secondary to gel transfer, and were not included in the quantitative comparison [FIG. 31)]. […]

For another data set, the system named is Cx43 protein. Briefly: Cx43 protein expression by stereoisomer forms (immuno-(Western) blotting, 4 days). The class given is cell-based, mouse. The settings on record: 1×10^-5 M in 1:2 ethanol/H2O. The protocol:
(2) Molecular Studies. […] Briefly, mouse embryonic fibroblast C3H10T1/2 cells were cultured in Eagle's basal medium with Earle's salts (Atlanta Biologicals, Atlanta, Ga.), supplemented with 5% fetal calf serum (Atlanta Biologicals, Atlanta, Ga.) and 25 μg/mL gentamicin sulfate (Sigma, St. Louis, Mo.), and incubated at 37° C. in 5% CO2. On the 7th day after seeding in 100 millimeter (mm) dishes, the confluent cells were treated for four days with the disodium salt disuccinate astaxanthin derivatives XVI and then harvested and analyzed for Cx43 protein induction as described. Protein content was measured using the Protein Assay Reagent kit (Pierce Chemical Co., Rockford, Ill.) according to manufacturer's instructions. Cell lysates containing 100 μg of protein were analyzed by Western blotting using the NuPage western blotting kit and apparatus (Invitrogen, Carlsbad, Calif.) and Cx43 protein detected using a rabbit polyclonal antibody (Zymed, San Francisco, Calif.) raised against a synthetic polypeptide corresponding to the C-terminal domain of mouse, human and rat Cx43. Cx43 immunoreactive bands were visualized by chemiluminescence using an anti-rabbit HRP-conjugated secondary antibody (Pierce Chemical Co., Rockford, Ill.). Digital images were obtained with a cooled CCD camera, and quantitative densitometry was then performed (Bio-Rad, Richmond, Calif.).

SMILES strings stand for the structures. Where a name gives a salt, the structure may show the parent alone.

`CC1=C(/C=C/C(C)=C/C=C/C(C)=C/C=C/C=C(C)/C=C/C=C(C)/C=C/C2=C(C)C(=O)C(OC(=O)CCC(=O)O)CC2(C)C)C(C)(C)CC(OC(=O)CCC(=O)O)C1=O` (racemic) [XVI, Disodium Salt of the Disuccinic Acid Ester of Astaxanthin]: the Oral clearance in data set [1] stood at 216.822 L/h. Also, in data set [2] (water 10^-5 to 10^-7 M and EtOH/H2O formulations, vs water and ethanol/water controls), the “induction of connexin 43 protein expression” value is listed as “induced connexin 43 protein expression”. Besides, the “connexin 43 induction level compared with TTNPB positive control” value in data set [2] (in water at concentrations greater than 10^-7 and in ethanol/water at 10^-5) is on record as “higher inductions levels than the positive TTNPB control”. For the same compound, in the data set with Cx43 protein, the “rank of Cx43 induction level among derivatives” value is recorded as “highest induction level of Cx43 of all derivatives tested”. Further, the “expression of Cx43 protein” value with Cx43 protein (four days, vs 1:2 ethanol/H2O alone) is given as “increase expression of Cx43 protein”.

The values are drawn from US7345091B2, “Carotenoid ether analogs or derivatives for the inhibition and amelioration of disease” (Cardax Pharmaceuticals, Inc., priority 2002, dated 2008).
